Assay results published in patent publication US8017612B2, “Piperazine compound and use thereof as a HCV polymerase inhibitor” (priority 2006, dated 2011).

Experiments:
[1] = molecular target: T1, HCV polymerase (NS5B) type 1b (Hepatitis C virus genotype 1b, UniProt P26663); experiment: Assay of enzyme (HCV polymerase) inhibitory activity, type 1b enzyme; format: biochemical, HCV BK strain (type 1b); conditions: HCV polymerase inhibitory activity IC50, 1b, type 1b enzyme
T1 construct: a region encoding NS5B (J Virol 1991 March, 65(3), 1105-13, 544 amino acids after deletion of 47 amino acids on the C-terminal); 6xHis (C); made in house; host or cells: Escherichia coli
Procedure, shortened: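 NS5B from HCV BK strain (type 1b), C-terminal 47 aa deleted, C-terminal His6-tagged, E. coli-expressed, 0.5 μg/ml, with ~450 nt substrate RNA carrying the 3′ UTR (polyU, 3′X) at 5 μg/ml. Incubation 60 min at 25 °C with 50 μM ATP/GTP/CTP, 2 μM UTP plus [3H]UTP, pH 7.5 Tris.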

[2] = molecular target: T2, HCV polymerase (NS5B) type 1a (Hepatitis C virus genotype 1a, UniProt P26664); experiment: Assay of enzyme (HCV polymerase) inhibitory activity, type 1a enzyme; format: biochemical, HCV type 1a (cloned from the blood of patients); conditions: HCV polymerase inhibitory activity IC50, 1a, type 1a enzyme
T2 construct: made in house; host or cells: Escherichia coli (by the 'similar method' of the 1b enzyme)
Procedure, shortened: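 Patient-derived type 1a NS5B (C-terminal 47-aa deletion, His-tagged, E. coli-expressed) at 1.5 μg/ml was reacted with 5 μg/ml 3′UTR-containing substrate RNA, 50 μM ATP/GTP/CTP, 2 μM UTP plus [3H]UTP, pH 7.5, 25° C for 60 min. TCA-precipitated RNA radioactivity was counted; IC50 from ± compound.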

| Compound | IC50 [1] [nM] | IC50 [2] [nM] |
| --- | --- | --- |
| O=C(NCc1ccc(OCF)cc1)[C@H]1CN(c2nc3nc(Cl)ncc3s2)CCN1S(=O)(=O)c1ccc(OC(F)(F)F)cc1 [Example 966, (R)-4-(5-chloro-thiazolo[4,5-d]pyrimidin-2-yl)-1-(4-trifluoromethoxy-benzenesulfonyl)-piperazine-2-carboxylic acid 4-fluoromethoxy-benzylamide] | < 100 | < 100 |
| O=C(NCc1ccc(OCF)cc1)[C@H]1CN(c2nc3ncncc3s2)CCN1S(=O)(=O)c1ccc(OC(F)(F)F)cc1 [Example 967, (R)-4-thiazolo[4,5-d]pyrimidin-2-yl-1-(4-trifluoromethoxy-benzenesulfonyl)-piperazine-2-carboxylic acid 4-fluoromethoxy-benzylamide] | < 100 | < 100 |
| O=C(NCc1ccc(OC(F)F)cc1)[C@H]1CN(c2nc3nc(Cl)ncc3s2)CCN1S(=O)(=O)c1ccc(C(F)(F)F)cc1 [Example 968, (R)-4-(5-chloro-thiazolo[4,5-d]pyrimidin-2-yl)-1-(4-trifluoromethyl-benzenesulfonyl)-piperazine-2-carboxylic acid 4-difluoromethoxy-benzylamide] | < 100 | < 100 |
| O=C(NCc1ccc(OC(F)F)cc1)[C@H]1CN(c2nc3ncncc3s2)CCN1S(=O)(=O)c1ccc(C(F)(F)F)cc1 [Example 969, (R)-4-thiazolo[4,5-d]pyrimidin-2-yl-1-(4-trifluoromethyl-benzenesulfonyl)-piperazine-2-carboxylic acid 4-difluoromethoxy-benzylamide] | < 100 | < 100 |
| Cc1ncc2sc(N3CCN(S(=O)(=O)c4ccc(C(F)(F)F)cc4)[C@@H](C(=O)NCc4ccc(OC(F)F)cc4)C3)nc2n1 [Example 970, (R)-4-(5-methyl-thiazolo[4,5-d]pyrimidin-2-yl)-1-(4-trifluoromethyl-benzenesulfonyl)-piperazine-2-carboxylic acid 4-difluoromethoxy-benzylamide] | < 100 | < 100 |
| O=C(NCc1ccc(C2CC2)cc1)[C@H]1CN(c2nc3nc(Cl)ncc3s2)CCN1S(=O)(=O)c1ccc(OC(F)(F)F)cc1 [Example 971, (R)-4-(5-chloro-thiazolo[4,5-d]pyrimidin-2-yl)-1-(4-trifluoromethoxy-benzenesulfonyl)-piperazine-2-carboxylic acid 4-cyclopropyl-benzylamide] | < 100 | < 100 |
| O=C(NCc1ccc(OC(F)(F)F)cc1)[C@H]1CN(c2nc3nc(F)ncc3s2)CCN1S(=O)(=O)c1ccc(OC(F)(F)F)cc1 [Example 972, (R)-4-(5-fluoro-thiazolo[4,5-d]pyrimidin-2-yl)-1-(4-trifluoromethoxy-benzenesulfonyl)-piperazine-2-carboxylic acid 4-trifluoromethoxy-benzylamide] | < 100 | < 100 |
| CC(C)Nc1ncc2sc(N3CCN(S(=O)(=O)c4ccc(OC(F)(F)F)cc4)[C@@H](C(=O)NCc4ccc(OC(F)(F)F)cc4)C3)nc2n1 [Example 973, (R)-4-(5-isopropylamino-thiazolo[4,5-d]pyrimidin-2-yl)-1-(4-trifluoromethoxy-benzenesulfonyl)-piperazine-2-carboxylic acid 4-trifluoromethoxy-benzylamide] | < 100 | < 100 |
| CCN(CC)c1nc(Br)nc2nc(N3CCN(S(=O)(=O)c4ccc(C(F)(F)F)cc4)[C@@H](C(=O)NCc4ccc(OC(F)(F)F)cc4)C3)sc12 [Example 974, (R)-4-(5-bromo-7-diethylamino-thiazolo[4,5-d]pyrimidin-2-yl)-1-(4-trifluoromethyl-benzenesulfonyl)-piperazine-2-carboxylic acid 4-trifluoromethoxy-benzylamide] | > 1000 | > 1000 |
| O=C(NCc1ccc(OC(F)(F)F)cc1)[C@H]1CN(c2nc3nc(C4CC4)ncc3s2)CCN1S(=O)(=O)c1ccc(OC(F)(F)F)cc1 [Example 975, (R)-4-(5-cyclopropyl-thiazolo[4,5-d]pyrimidin-2-yl)-1-(4-trifluoromethoxy-benzenesulfonyl)-piperazine-2-carboxylic acid 4-trifluoromethoxy-benzylamide] | < 100 | < 100 |
| O=C(NCc1ccc(C2CC2)cc1)[C@H]1CN(c2nc3ncncc3s2)CCN1S(=O)(=O)c1ccc(OC(F)(F)F)cc1 [Example 976, (R)-4-thiazolo[4,5-d]pyrimidin-2-yl-1-(4-trifluoromethoxy-benzenesulfonyl)-piperazine-2-carboxylic acid 4-cyclopropyl-benzylamide] | < 100 | < 100 |
| O=C(NCc1ccc(OC(F)(F)F)cc1)[C@H]1CN(c2nn3ccc(=O)nc3s2)CCN1S(=O)(=O)c1ccc(OC(F)(F)F)cc1 [Example 977, (R)-4-(7-oxo-7H-[1,3,4]thiadiazolo[3,2-a]pyrimidin-2-yl)-1-(4-trifluoromethoxy-benzenesulfonyl)-piperazine-2-carboxylic acid 4-trifluoromethoxy-benzylamide] | < 100 | < 100 |
| CC(=O)c1sc(N2CCN(S(=O)(=O)c3ccc(OC(F)(F)F)cc3)[C@@H](C(=O)NCc3ccc(OC(F)(F)F)cc3)C2)nc1C [Example 978, (R)-4-(5-acetyl-4-methyl-thiazol-2-yl)-1-(4-trifluoromethoxy-benzenesulfonyl)-piperazine-2-carboxylic acid 4-trifluoromethoxy-benzylamide] | < 100 | < 100 |
| NC(=O)c1ncc2sc(N3CCN(S(=O)(=O)c4ccc(OC(F)(F)F)cc4)[C@@H](C(=O)NCc4ccc(OC(F)(F)F)cc4)C3)nc2n1 [Example 979, 2-[(R)-4-(4-trifluoromethoxy-benzenesulfonyl)-3-(4-trifluoromethoxy-benzylcarbamoyl)-piperazin-1-yl]-thiazolo[4,5-d]pyrimidine-5-carboxylic acid amide] | < 100 | < 100 |
| Cc1nn(C)c2nc(N3CCN(S(=O)(=O)c4ccc(OC(F)(F)F)cc4)[C@@H](C(=O)NCc4ccc(OC(F)(F)F)cc4)C3)sc12 [Example 980, (R)-4-(1,3-dimethyl-1H-pyrazolo[3,4-d]thiazol-5-yl)-1-(4-trifluoromethoxy-benzenesulfonyl)-piperazine-2-carboxylic acid 4-trifluoromethoxy-benzylamide] | < 100 | < 100 |
| O=C(NCc1ccc(OC(F)(F)F)cc1)[C@H]1CN(c2nc3nc(C(F)(F)F)ncc3s2)CCN1S(=O)(=O)c1ccc(C(F)(F)F)cc1 [Example 981, (R)-1-(4-trifluoromethyl-benzenesulfonyl)-4-(5-trifluoromethyl-thiazolo[4,5-d]pyrimidin-2-yl)-piperazine-2-carboxylic acid 4-trifluoromethoxy-benzylamide] | < 100 | < 100 |
| Cc1nc(N)c2sc(N3CCN(S(=O)(=O)c4ccc(OC(F)(F)F)cc4)[C@@H](C(=O)NCc4ccc(OC(F)(F)F)cc4)C3)nc2n1 [Example 982, (R)-4-(7-amino-5-methyl-thiazolo[4,5-d]pyrimidin-2-yl)-1-(4-trifluoromethoxy-benzenesulfonyl)-piperazine-2-carboxylic acid 4-trifluoromethoxy-benzylamide] | < 100 | < 100 |
| O=C(NCc1ccc(OC(F)(F)F)cc1)[C@H]1CN(c2nc3nc(C4CC4)ncc3s2)CCN1S(=O)(=O)c1ccc(C(F)(F)F)cc1 [Example 983, (R)-4-(5-cyclopropyl-thiazolo[4,5-d]pyrimidin-2-yl)-1-(4-trifluoromethyl-benzenesulfonyl)-piperazine-2-carboxylic acid 4-trifluoromethoxy-benzylamide] | < 100 | < 100 |
| CC(C)c1ncc2sc(N3CCN(S(=O)(=O)c4ccc(OC(F)(F)F)cc4)[C@@H](C(=O)NCc4ccc(OC(F)(F)F)cc4)C3)nc2n1 [Example 984, (R)-4-(5-isopropyl-thiazolo[4,5-d]pyrimidin-2-yl)-1-(4-trifluoromethoxy-benzenesulfonyl)-piperazine-2-carboxylic acid 4-trifluoromethoxy-benzylamide] | < 100 | < 100 |
| O=C(NCc1ccc(OC(F)(F)F)cc1)[C@H]1CN(c2nc3c(Cl)nncc3s2)CCN1S(=O)(=O)c1ccc(OC(F)(F)F)cc1 [Example 985, (R)-4-(4-chloro-thiazolo[4,5-d]pyridazin-2-yl)-1-(4-trifluoromethoxy-benzenesulfonyl)-piperazine-2-carboxylic acid 4-trifluoromethoxy-benzylamide] | < 100 | < 100 |
| Cc1nnc2sc(N3CCN(S(=O)(=O)c4ccc(OC(F)(F)F)cc4)[C@@H](C(=O)NCc4ccc(OC(F)(F)F)cc4)C3)nn2c1=O [Example 986, (R)-4-(3-methyl-4-oxo-4H-[1,3,4]thiadiazolo[2,3-c][1,2,4]triazin-7-yl)-1-(4-trifluoromethoxy-benzenesulfonyl)-piperazine-2-carboxylic acid 4-trifluoromethoxy-benzylamide] | < 100 | < 100 |
| O=C(NCc1ccc(OC(F)(F)F)cc1)[C@H]1CN(c2nc3nnncc3s2)CCN1S(=O)(=O)c1ccc(OC(F)(F)F)cc1 [Example 987, (R)-4-thiazolo[4,5-d][1,2,3]triazin-6-yl-1-(4-trifluoromethoxy-benzenesulfonyl)-piperazine-2-carboxylic acid 4-trifluoromethoxy-benzylamide] | < 100 | < 100 |
